Test results reported in article PMC10052025 (Pharmaceutics, 2023).
Converted amounts (≈) assume the structure as drawn. Read-outs that look alike come from different tables or passages of the source. Each block holds one compound with its values, some of them ahead of it.

What was measured:
OATP1B1 [1] = target: T1, OATP1B1 (Homo sapiens, UniProt Q9Y6L6); parameters: FLAG; expressed in transfected cells; conditions: cited from earlier work
T1 sequence (Q9Y6L6 1-691): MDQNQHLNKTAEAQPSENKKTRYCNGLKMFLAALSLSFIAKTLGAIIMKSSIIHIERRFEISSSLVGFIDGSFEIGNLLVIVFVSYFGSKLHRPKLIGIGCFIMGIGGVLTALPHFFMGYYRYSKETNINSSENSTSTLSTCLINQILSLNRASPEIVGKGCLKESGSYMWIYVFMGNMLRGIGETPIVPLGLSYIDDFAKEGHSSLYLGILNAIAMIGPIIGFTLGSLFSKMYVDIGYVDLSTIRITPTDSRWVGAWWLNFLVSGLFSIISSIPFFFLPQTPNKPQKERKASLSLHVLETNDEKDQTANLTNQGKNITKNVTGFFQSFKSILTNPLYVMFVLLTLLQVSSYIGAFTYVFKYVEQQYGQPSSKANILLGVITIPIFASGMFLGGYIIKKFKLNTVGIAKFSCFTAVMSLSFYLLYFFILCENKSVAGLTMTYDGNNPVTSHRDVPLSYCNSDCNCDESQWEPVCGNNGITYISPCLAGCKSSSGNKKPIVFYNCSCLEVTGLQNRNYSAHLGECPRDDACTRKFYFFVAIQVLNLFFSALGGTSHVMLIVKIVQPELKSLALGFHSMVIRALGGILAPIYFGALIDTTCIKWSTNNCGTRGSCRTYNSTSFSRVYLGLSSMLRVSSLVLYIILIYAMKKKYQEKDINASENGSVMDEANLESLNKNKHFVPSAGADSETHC

OATP1B1/3 = conditions: humans, cited from earlier work
[2] = system: OATP1B1 c. 521CC genotype; conditions: subjects with OATP1B1 c. 521CC genotype; cited from earlier work
[3] = Maximum aqueous soluble concentration; type: physicochemical; conditions: aqueous solution (not further specified)
[4] = Nicardipine pharmacokinetic parameters for R-value determination; conditions: Estimated based on Equation (3)
Procedure: The fa is the fraction absorbed. […] Fg is the fraction that escaped gut metabolism (Fg). The ka is the absorption rate constant. […] Qh is the hepatic blood flow rate (1500 mL/min) [32]. RB is the blood-to-plasma concentration ratio. […] RB of 0.63 was used as a worst-case scenario.

[5] = steady state, read-out: Cmax, plasma, cited from earlier work
[6] = human plasma; cited from earlier work
OATP1B3 [7] = target: T2, OATP1B3 (Homo sapiens, UniProt Q9NPD5); assay: Prediction of OATP1B3-mediated DDI using the static R-value model; parameters: FLAG; expressed in transfected cells; conditions: predicted AUC ratio
T2 sequence (Q9NPD5 1-702): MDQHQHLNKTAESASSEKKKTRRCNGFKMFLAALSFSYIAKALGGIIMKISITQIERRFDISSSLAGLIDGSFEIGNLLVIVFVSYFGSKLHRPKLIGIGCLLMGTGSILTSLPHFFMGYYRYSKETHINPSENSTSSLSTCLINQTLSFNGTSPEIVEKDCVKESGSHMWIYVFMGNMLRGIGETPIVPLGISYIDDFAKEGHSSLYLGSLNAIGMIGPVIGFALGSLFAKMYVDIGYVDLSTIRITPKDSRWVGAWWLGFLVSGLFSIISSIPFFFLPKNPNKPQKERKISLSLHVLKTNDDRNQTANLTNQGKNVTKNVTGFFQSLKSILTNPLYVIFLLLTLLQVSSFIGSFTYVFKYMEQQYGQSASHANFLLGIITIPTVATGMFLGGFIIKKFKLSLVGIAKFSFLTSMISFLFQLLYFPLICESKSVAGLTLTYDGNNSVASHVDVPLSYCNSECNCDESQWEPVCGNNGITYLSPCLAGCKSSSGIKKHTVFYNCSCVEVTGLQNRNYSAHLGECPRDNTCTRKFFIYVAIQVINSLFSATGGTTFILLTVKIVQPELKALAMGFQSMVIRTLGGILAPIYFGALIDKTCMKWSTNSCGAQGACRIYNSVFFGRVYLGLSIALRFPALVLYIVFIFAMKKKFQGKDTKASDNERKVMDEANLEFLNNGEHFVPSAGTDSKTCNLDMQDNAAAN
Procedure: (§1) The R-value, which represents the predicted AUC ratio of the substrate drug in the presence versus absence of an inhibitor drug, was calculated based on Equation (2), following the US-FDA final guidance with the parameters summarized in Table 1.
(§2) The fa is the fraction absorbed. […] Fg is the fraction that escaped gut metabolism (Fg). The ka is the absorption rate constant. […] Qh is the hepatic blood flow rate (1500 mL/min). RB is the blood-to-plasma concentration ratio. […] (3) Iin,max=Imax+faFg×ka×Dose/Qh×RB

OATP1B3 [8] = target: T2, OATP1B3
Procedure: (§3) HEK293 stable cell lines expressing FLAG-tagged OATP1B1 (HEK293-FLAG-OATP1B1) or FLAG-tagged OATP1B3 (HEK293-FLAG-OATP1B3) have been published previously. Both HEK293 stable cell lines were cultured in DMEM culture media supplemented with 9% FBS (abbreviated as FBS–DMEM), antibiotic antimycotic, and 600 µg/mL G418 as published previously.
(§4) HEK293-FLAG-OATP1B1 and HEK293-FLAG-OATP1B3 cells (less than 40 passages) were seeded in poly-L-lysine coated 24-well plates at a density of 1.5 × 10^5 cells per well and allowed to grow for 48 h until confluent before the transport studies. [^3H]-E217βG (1 µM, 2 min) and [^3H]-CCK-8 (1 µM, 3 min) were used as substrates for OATP1B1 and OATP1B3 in HEK293-FLAG-OATP1B1 and HEK293-FLAG-OATP1B3 cells, respectively. […] After preincubation, cells were washed three times with HBSS buffer and incubated with HBSS buffer containing substrate, in the […] of vehicle control or inhibitor. […] At the end of substrate incubation, cells were washed three times with ice-cold HBSS buffer and lysed in PBS containing 0.5% Triton X-100. Liquid scintillation counting was determined and normalized to the protein concentration, after correcting for any nonspecific binding in the poly-L-lysine-coated blank plates, as published previously.
(§5) (1) E=Bottom+Top−Bottom/(1+C/IC50) where E is the remaining substrate transport at a given inhibitor concentration (C).

OATP1B1 [9] = target: T1, OATP1B1; assay: cell-based; conditions: for OATP1B1-mediated transport after preincubation: washed, substrate without inhibitor; for IC50: [3H]-E217βG 1 µM, 2 min
Procedure: as §3, §4, §5

OATP1B1 [10] = target: T1, OATP1B1; assay: Prediction of OATP1B1-mediated DDI using the static R-value model; parameters: FLAG; expressed in transfected cells; conditions: predicted AUC ratio
Procedure: as §1, §2

[11] = from co-incubation IC50, FBS-DMEM
[12] = from pre + co-incubation IC50, HBSS
[13] = from pre + co-incubation IC50, FBS-DMEM

SMILES: CCOC(=O)C1=C(COCCN)NC(C)=C(C(=O)OC)C1c1ccccc1Cl (stereo not drawn) [amlodipine]
predicted DDI potential based on IC50 values against OATP1B1 (OATP1B1 [1]; IC50 determined without inhibitor-preincubation step): no DDI potential

SMILES: COCC(=O)O[C@]1(CCN(C)CCCc2nc3ccccc3[nH]2)CCc2cc(F)ccc2[C@@H]1C(C)C [Mibefradil, mibefradil]
AUC Ratio (OATP1B1/3; AUC of atorvastatin on coadministration, ref 10 in text, ref 8 in Table 3): 4.43 | AUC Ratio (OATP1B1/3; AUC of pravastatin on coadministration of mibefradil): 1.32

SMILES: COC(=O)C1=C(C)NC(C)=C(C(=O)OCC(C)C)C1c1ccccc1[N+](=O)[O-] (stereo not drawn) [Nisoldipine, nisoldipine]
AUC Ratio (OATP1B1/3; AUC of telmisartan on coadministration): 2.32

SMILES: CC[C@H](C)C(=O)O[C@H]1C[C@H](O)C=C2C=C[C@H](C)[C@H](CC[C@@H](O)C[C@@H](O)CC(=O)O)[C@H]21 [pravastatin]
increased AUC, fold of the reference [2]: 1.9 fold

solubility [3]: 4 µM (≈ 1.92 µg/mL) | Iin, max (estimated total maximum plasma concentration at the inlet to the liver) [4]: 8.46 µM | R (20 mg) (OATP1B3 [7]; [11]): 1.0 | R (20 mg) (OATP1B3 [7]; from co-incubation IC50, HBSS): 1.0 | R (20 mg) (OATP1B3 [7]; [12]): 1.1 | R (30 mg) (OATP1B3 [7]; from co-incubation IC50, HBSS): 1.0 | R (30 mg) (OATP1B3 [7]; [12]): 1.2 | R (40 mg) (OATP1B3 [7]; from co-incubation IC50, HBSS): 1.0 | R (40 mg) (OATP1B3 [7]; [12]): 1.3 | effect of preincubation on OATP1B3-mediated transport (OATP1B3 [8]; 0.5 µM, any treatment condition): did not significantly affect | effect of preincubation on OATP1B3-mediated transport (OATP1B3 [8]; FBS-containing medium, 4 µM for 30 min and 2 or 4 µM for 1 h): small, yet significant, reductions | effect of preincubation on OATP1B1-mediated transport (OATP1B1 [9]; 0.5 µM, 10 min preincubation in HBSS buffer): no effect | OATP1B1-mediated transport after preincubation (OATP1B1 [9]; 0.5 µM, 30 min preincubation in HBSS buffer): 0.78 ± 0.04 fold of the control | OATP1B1-mediated transport after preincubation (OATP1B1 [9]; 0.5 µM, 1 h preincubation in HBSS buffer): 0.82 ± 0.04 fold of the control | effect of preincubation on OATP1B1-mediated transport (OATP1B1 [9]; 0.5 µM, any preincubation duration (10 min–1 h) in FBS-containing medium): no effect | effect of preincubation on OATP1B1-mediated transport (OATP1B1 [9]; 2 and 4 µM, HBSS buffer and FBS-containing medium, all preincubation time points): significantly reduced | IC50 (OATP1B1 [9]; IC50, Co-incubation only (no preincubation), FBS-DMEM row): 2800 ± 2440 nM | IC50 (OATP1B1 [9]; IC50, Co-incubation only (no preincubation), HBSS row): 3550 ± 2460 nM | IC50 (OATP1B1 [9]; IC50, Pre + co-incubation, 30 min preincubation in FBS-DMEM (9% FBS)): 1570 ± 1400 nM | IC50 (OATP1B1 [9]; IC50, Pre + co-incubation, 30 min preincubation in protein-free HBSS buffer): 980 ± 260 nM | R (20 mg) (OATP1B1 [10]; [11]): 1.1 | R (20 mg) (OATP1B1 [10]; from co-incubation IC50, HBSS): 1.1 | R (20 mg) (OATP1B1 [10]; [13]): 1.1 | R (20 mg) (OATP1B1 [10]; [12]): 1.2 | R (30 mg) (OATP1B1 [10]; [11]): 1.1 | R (30 mg) (OATP1B1 [10]; from co-incubation IC50, HBSS): 1.1 | R (30 mg) (OATP1B1 [10]; [13]): 1.2 | R (30 mg) (OATP1B1 [10]; [12]): 1.3 | R (40 mg) (OATP1B1 [10]; [11]): 1.2 | R (40 mg) (OATP1B1 [10]; from co-incubation IC50, HBSS): 1.1 | R (40 mg) (OATP1B1 [10]; [13]): 1.3 | R (40 mg) (OATP1B1 [10]; [12]): 1.4
SMILES: COC(=O)C1=C(C)NC(C)=C(C(=O)OCCN(C)Cc2ccccc2)C1c1cccc([N+](=O)[O-])c1 (stereo not drawn) [nicardipine]
inhibition of OATP1B1-mediated transport (OATP1B1 [1]; 20 µM): 65% | Cmax ([5]; 20 mg 3 times a day): 70 nM | Cmax ([5]; 30 mg 3 times a day): 170 nM | Cmax ([5]; 40 mg 3 times a day): 260 nM | fu (Fraction unbound in the plasma) [6]: 0.05 [29]
